Experimental data reported in paper PMC3261198, “Mitochondrial Apoptosis and FAK Signaling Disruption by a Novel Histone Deacetylase Inhibitor, HTPB, in Antitumor and Antimetastatic Mouse Models” (PLoS ONE, 2012).

How the values were obtained:
[1] = tested on: IMR90 normal lung cell line; conditions: 0.5–10 µM, 48 hours, MTT
HDAC1 = HDAC1 (Homo sapiens, UniProt Q13547); conditions: HTPB 1 or 2 µM; class I HDAC from A549 cells
HDAC8 = HDAC8 (Homo sapiens, UniProt Q9BY41); conditions: HTPB 1 or 2 µM; class I HDAC from A549 cells
HDAC4 = HDAC4 (Homo sapiens, UniProt P56524); conditions: HTPB 1 or 2 µM; class II HDAC from A549 cells
HDAC6 = HDAC6 (Homo sapiens, UniProt Q9UBN7); conditions: HTPB 1 or 2 µM; class II HDAC from A549 cells
HDAC11 = HDAC11 (Homo sapiens, UniProt Q96DB2); conditions: HTPB 1 or 2 µM; class IV HDAC from A549 cells
HDAC = conditions: Fig. S5, compared to MS275
A549 cells [2] = conditions: A549, 5 µM, 24 hours
H1299 cells [3] = conditions: H1299, 5 µM, 24 hours
MMP-2 = conditions: A549 and H1299 cells, 2.5 µM, 48 hours
MMP-9 = conditions: A549 and H1299 cells, 2.5 µM, 48 hours
A549 cells [4] = test: cells; conditions: Homo sapiens, A549, 48 h, read-out: IC50 (cytotoxicity)
RhoA = conditions: A549 and H1299 cells, 2.5 µM, 48 hours
[5] = 25–100 mg/kg intraperitoneal or oral, three weeks
[6] = tested on: 4T1-luc breast cancer cells; conditions: 1.92 µM, 48 hours
[7] = tested on: 4T1-luc breast cancer cells; conditions: 1.92 µM, 48 hours; remark: listed apart in the source
[8] = tested on: lung metastasis of 4T1-luc cells; conditions: cells pre-treated with 1.92 µM for 48 hours, injected via tail vein, imaged 13 days
[9] = tested on: acetylation of histone H3, histone H4, p53 and tubulin; conditions: time- and dose-dependent, Western blot
[10] = tested on: acetylation of histone H3, histone H4 and p53; conditions: single dose 50 mg/kg intraperitoneal, after 2 hours
H1299 cells [11] = test: cells; conditions: Homo sapiens, NCI-H1299, 48 h, read-out: IC50 (cytotoxicity)
in vitro [12] = conditions: human, A549 cells
in vitro [13] = conditions: human, H1299 cells
[14] = tested on: A549 lung tumor xenograft; test: In vivo anti-tumor growth assay; conditions: for tumor growth inhibition compared with DMSO control / tumor growth inhibition: 3 days/week for three weeks; for tumor growth inhibition: oral

Sequence of HDAC8 (Q9BY41 whole entry): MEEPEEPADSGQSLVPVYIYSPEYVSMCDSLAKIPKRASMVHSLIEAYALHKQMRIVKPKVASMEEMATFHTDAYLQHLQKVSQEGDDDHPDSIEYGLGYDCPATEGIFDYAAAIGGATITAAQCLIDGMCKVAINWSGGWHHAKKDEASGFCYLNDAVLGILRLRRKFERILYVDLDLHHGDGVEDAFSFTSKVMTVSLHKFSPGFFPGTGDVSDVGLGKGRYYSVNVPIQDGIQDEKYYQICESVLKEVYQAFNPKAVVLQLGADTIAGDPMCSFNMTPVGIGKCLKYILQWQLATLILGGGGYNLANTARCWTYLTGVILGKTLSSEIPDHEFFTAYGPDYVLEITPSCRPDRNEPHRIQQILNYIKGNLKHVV
Sequence of HDAC6 (Q9UBN7 whole entry): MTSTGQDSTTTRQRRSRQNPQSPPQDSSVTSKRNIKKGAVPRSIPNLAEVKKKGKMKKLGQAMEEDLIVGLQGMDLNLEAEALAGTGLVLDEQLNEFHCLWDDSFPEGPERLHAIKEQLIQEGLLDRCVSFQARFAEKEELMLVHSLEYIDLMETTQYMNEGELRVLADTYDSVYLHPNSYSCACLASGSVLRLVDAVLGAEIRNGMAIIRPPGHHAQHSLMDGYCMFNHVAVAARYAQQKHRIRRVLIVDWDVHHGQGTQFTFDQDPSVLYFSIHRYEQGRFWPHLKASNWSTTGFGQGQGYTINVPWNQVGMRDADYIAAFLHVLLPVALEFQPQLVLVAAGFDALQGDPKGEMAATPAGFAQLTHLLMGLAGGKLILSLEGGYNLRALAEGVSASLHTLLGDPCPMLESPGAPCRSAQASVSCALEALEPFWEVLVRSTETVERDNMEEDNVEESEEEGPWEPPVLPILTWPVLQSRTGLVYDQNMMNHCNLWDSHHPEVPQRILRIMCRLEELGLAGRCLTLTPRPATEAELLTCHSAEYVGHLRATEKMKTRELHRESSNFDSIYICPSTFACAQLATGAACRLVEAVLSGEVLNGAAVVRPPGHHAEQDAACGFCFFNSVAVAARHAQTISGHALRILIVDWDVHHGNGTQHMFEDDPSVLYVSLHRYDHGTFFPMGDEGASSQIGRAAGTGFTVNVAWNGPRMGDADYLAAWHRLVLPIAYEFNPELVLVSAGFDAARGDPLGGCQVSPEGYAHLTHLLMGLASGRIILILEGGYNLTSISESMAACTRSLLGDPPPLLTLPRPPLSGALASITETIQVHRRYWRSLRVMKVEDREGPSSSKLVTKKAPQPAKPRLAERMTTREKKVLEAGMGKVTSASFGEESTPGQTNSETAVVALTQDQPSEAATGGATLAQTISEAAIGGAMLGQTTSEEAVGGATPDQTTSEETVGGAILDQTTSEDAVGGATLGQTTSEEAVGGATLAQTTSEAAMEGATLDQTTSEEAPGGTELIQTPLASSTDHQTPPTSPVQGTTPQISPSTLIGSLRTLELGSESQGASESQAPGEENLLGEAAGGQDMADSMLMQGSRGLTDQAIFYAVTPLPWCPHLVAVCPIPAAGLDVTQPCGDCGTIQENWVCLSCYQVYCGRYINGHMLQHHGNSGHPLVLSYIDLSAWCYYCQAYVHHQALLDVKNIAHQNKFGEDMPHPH
Sequence of HDAC1 (Q13547 whole entry): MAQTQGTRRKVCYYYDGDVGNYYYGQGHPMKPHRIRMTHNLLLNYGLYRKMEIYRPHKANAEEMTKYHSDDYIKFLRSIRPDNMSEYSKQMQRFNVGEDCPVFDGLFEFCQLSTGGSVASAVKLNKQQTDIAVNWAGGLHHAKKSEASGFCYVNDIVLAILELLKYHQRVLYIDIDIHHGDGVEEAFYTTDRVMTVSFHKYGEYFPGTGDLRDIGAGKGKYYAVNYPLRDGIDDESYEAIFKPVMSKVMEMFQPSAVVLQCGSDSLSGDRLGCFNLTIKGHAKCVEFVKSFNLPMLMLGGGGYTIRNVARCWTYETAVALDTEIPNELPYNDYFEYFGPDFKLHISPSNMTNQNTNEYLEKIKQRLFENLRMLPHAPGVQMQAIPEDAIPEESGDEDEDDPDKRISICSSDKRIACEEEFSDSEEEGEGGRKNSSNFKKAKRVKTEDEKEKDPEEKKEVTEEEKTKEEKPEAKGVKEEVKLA
Sequence of HDAC11 (Q96DB2 whole entry): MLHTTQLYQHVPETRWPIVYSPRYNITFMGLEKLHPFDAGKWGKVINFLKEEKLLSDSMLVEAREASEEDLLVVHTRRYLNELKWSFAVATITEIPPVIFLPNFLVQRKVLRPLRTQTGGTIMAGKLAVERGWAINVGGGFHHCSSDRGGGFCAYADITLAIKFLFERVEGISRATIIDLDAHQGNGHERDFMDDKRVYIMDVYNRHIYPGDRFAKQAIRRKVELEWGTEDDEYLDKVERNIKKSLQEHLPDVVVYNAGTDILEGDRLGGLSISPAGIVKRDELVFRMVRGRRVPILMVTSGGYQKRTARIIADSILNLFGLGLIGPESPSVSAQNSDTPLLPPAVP

Question: What does the source list for `O=C(CCCc1ccccc1)Nc1ccc(C(=O)NO)cc1` [HTPB, N-Hydroxy-4-(4-phenylbutyryl-amino)benzamide]?
Answer: cytotoxicity towards IMR90 normal lung cell line [1]: without showing apparent cytotoxicity; deacetylase activity of HDAC1 (HDAC1): significantly inhibited; deacetylase activity of HDAC8 (HDAC8): significantly inhibited; deacetylase activity of HDAC4 (HDAC4): significantly inhibited; deacetylase activity of HDAC6 (HDAC6): significantly inhibited; deacetylase activity of HDAC11 (HDAC11): significantly inhibited; in vitro HDAC activity compared to MS275 (HDAC): significant inhibition; caspase-3 activity (A549 cells [2]): significantly stimulated; caspase-9 activity (A549 cells [2]): significantly stimulated; caspase-3 activity (H1299 cells [3]): significantly stimulated; caspase-9 activity (H1299 cells [3]): significantly stimulated; MMP-2 enzyme activity (MMP-2): significantly decreased; MMP-9 enzyme activity (MMP-9): significantly decreased; IC50 (A549 cells [4]): 1.59 µM; RhoA activity (RhoA-GTP) (RhoA): markedly decreased; effect on body weight [5]: did not adversely affect body weight; toxicity by hematological biochemistry examinations (GOT, GPT, albumin, creatinine) [5]: no detectable toxicity; cell viability of 4T1-luc cells [6]: did not change cell viability; transwell migration capacities compared to the un-treated control [7]: 50%; lung metastasis of 4T1-luc cells [8]: significantly delayed lung metastasis; acetylation of histone H3, histone H4, p53 and tubulin [9]: induced acetylation; acetylation of histone H3, histone H4 and p53 in tumor xenograft [10]: profoundly increased; IC50 (H1299 cells [11]): 2.19 µM; viability at 48 h, 0.5 µM (in vitro [12]): 87%; viability at 48 h, 1 µM (in vitro [12]): 80%; viability at 48 h, 0.5 µM (in vitro [13]): 94%; viability at 48 h, 1 µM (in vitro [13]): 85%; tumor growth inhibition compared with DMSO control ([14]; intraperitoneal, 25 mg/kg): 80%; tumor growth inhibition compared with DMSO control ([14]; intraperitoneal, 50 mg/kg): 94%; anti-tumor growth effect, times more potent than SAHA as assessed by tumor weight ([14]; intraperitoneal, tumor weight): 2–4 times; tumor growth inhibition ([14]; 50 mg/kg): 39%; tumor growth inhibition ([14]; 100 mg/kg): 79%
